# Measured values from article PMC2374418, “A prolonged methoxymorpholino doxorubicin (PNU-152243 or MMRDX) infusion schedule in patients with solid tumours: a phase 1 and pharmacokinetic study” (British Journal of Cancer, 2000).
# How the values were obtained:
# patients = system: patients; set-up: method as in Vasey et al, 1995; settings: ref Vasey et al, 1995, cited from earlier work
# [1] = set-up: method as in ref Johnston and Glazer, 1983; Acton et al, 1984; Streeter et al, 1986; settings: ref Johnston and Glazer, 1983; Acton et al, 1984; Streeter et al, 1986; cited from earlier work
# [2] = system: intrinsically anthracycline-resistant tumours; test: Tumour response according to WHO criteria; assay type: in vivo, human; settings: 3 h i.v. infusion, 1.0-1.5 mg m-2, 13 evaluable patients
# Text: Nowadays, anthracyclines play an important role in chemothera- peutic treatment of a wide variety of tumour types. The clinical use of anthracyclines is limited by their toxicity profile, especially irreversible, cumulative dose-related cardiotoxicity, and by intrinsic or acquired resistance of tumours cells. Mechanisms of this resistance consist of several pathways, such as overexpression of drug efflux pumps (i.e. P-glycoprotein), decrease in topoiso- merase II enzyme levels, and increase in cellular detoxifying capacity (Kaye and Merry, 1985; Deffie et al, 1989; de Jong et al, 1990; Ford and Hait, 1990; Roninson, 1997). Morpholinyl anthracyclines, such as methoxymorpholino doxorubicin (MMRDX or PNU-152243), were synthesized in search for new anthracyclines with at least partially novel modes of action, including activity on multidrug-resistant (MDR) tumours. MMRDX is a novel doxorubicin derivative in which the nitrogen atom of the daunosamine is enclosed in a methoxymor- pholino ring (Figure 1). […] The working mechanism of morpholinyl anthracyclines appears to be different from other anthracyclines. Morpholinyl anthracyclines inhibit ribosomal gene transcription as well as topoisomerase I-mediated DNA-cleavage (Wassermann et al, 1988, 1990). […] In addition, we assessed pharmacokinetics of prolonged MMRDX-infusion. […]
# [3] = Pharmacokinetics in plasma and urine, first cycle, non-compartmental analysis
# Text: (§1) Nowadays, anthracyclines play an important role in chemothera- peutic treatment of a wide variety of tumour types. The clinical use of anthracyclines is limited by their toxicity profile, especially irreversible, cumulative dose-related cardiotoxicity, and by intrinsic or acquired resistance of tumours cells. Mechanisms of this resistance consist of several pathways, such as overexpression of drug efflux pumps (i.e. P-glycoprotein), decrease in topoiso- merase II enzyme levels, and increase in cellular detoxifying capacity (Kaye and Merry, 1985; Deffie et al, 1989; de Jong et al, 1990; Ford and Hait, 1990; Roninson, 1997). Morpholinyl anthracyclines, such as methoxymorpholino doxorubicin (MMRDX or PNU-152243), were synthesized in search for new anthracyclines with at least partially novel modes of action, including activity on multidrug-resistant (MDR) tumours. MMRDX is a novel doxorubicin derivative in which the nitrogen atom of the daunosamine is enclosed in a methoxymor- pholino ring (Figure 1). […] The working mechanism of morpholinyl anthracyclines appears to be different from other anthracyclines. Morpholinyl anthracyclines inhibit ribosomal gene transcription as well as topoisomerase I-mediated DNA-cleavage (Wassermann et al, 1988, 1990). […] Metabolic conversion of MMRDX by human liver microsomes and NADPH potentiated the cytotoxicity in an ovarian carcinoma cell line (Lau et al, 1994). […] Therefore, we decided to perform a phase I study with MMRDX administered as a 3 h infusion every 4 weeks in order to try to increase the MTD as compared with bolus administration. In addition, we assessed pharmacokinetics of prolonged MMRDX-infusion. A prolonged methoxymorpholino doxorubicin (PNU- 152243 or MMRDX) infusion schedule in patients with solid tumours: a phase 1 and pharmacokinetic study E Fokkema1 , J Verweij2 , AT van Oosterom3 , DRA Uges1 , R Spinelli4 , O Valota4 , EGE de Vries1 and HJM Groen1 1 Department of Pulmonology, Department of Pharmacy, Department of Internal Medicine, University Hospital Groningen, PO Box 30.001, 9700 RB Groningen, The Netherlands; 2 Rotterdam Cancer Institute and University Hospital, Rotterdam, The Netherlands; 3 University Hospital Leuven, Belgium; 4 Pharmacia & Upjohn, Milan, Italy Summary The aim of this phase I study was to assess feasibility, pharmacokinetics and toxicity of methoxymorpholino doxorubicin (MMRDX or PNU-152243) administered as a 3 h intravenous infusion once every 4 weeks. […] The first cohort of patients was treated with 1 mg m-2 of MMRDX. The next cohorts received 1.25 mg m-2 and 1.5 mg m-2 respectively. […] (c) 2000 Cancer Research Campaign Keywords: methoxymorpholino doxorubicin; pharmacokinetics; phase I study 767 Received 6 January 1999 Revised 2 August 1999 Accepted 25 August 1999 Correspondence to: EGE de Vries British Journal of Cancer (2000) 82(4), 767-771 (c) 2000 Cancer Research Campaign DOI: 10.1054/ bjoc.1999.0996, available online at http://www.idealibrary.com on PATIENTS AND METHODS Patients The study was performed between December 1994 and June 1996. Patients with intrinsic anthracycline-resistant tumours were accrued in three different centres in Belgium and The Netherlands.
# [4] = system: various tumour cell lines, including MDR tumour cell lines; set-up: method as in ref Danesi et al, 1993; Kuhl et al, 1993; van der Graaf et al, 1995; Bakker et al, 1997; settings: ref Danesi et al, 1993, Kuhl et al, van der Graaf et al, 1995, Bakker et al, 1997; cited from earlier work
# MDR xenografts = system: MDR xenografts; set-up: method as in Ripamonti et al, 1992; settings: animal studies, ref Ripamonti et al, 1992; cited from earlier work
# [5] = system: patients with intrinsic anthracycline-resistant tumours; test: Phase I toxicity (CTC grading), MMRDX as 3 h intravenous infusion once every 4 weeks
# Text: as §1
structure (smiles),measurement,setting,value
"COc1cccc2c1C(=O)c1c(O)c3c(c(O)c1C2=O)C[C@@](O)(C(=O)CO)C[C@@H]3O[C@H]1C[C@H](N2CCO[C@H](OC)C2)[C@H](O)[C@H](C)O1 [MMRDX, methoxymorpholino doxorubicin]",Grade IV neutropenia,patients; 1.5 mg m-2 bolus every 3 weeks,14 % of administered cycles
same,Dose-limiting toxicity (DLT),patients; bolus injection every 3 weeks,myelosuppression (neutropenia and thrombocytopenia)
same,Maximum tolerated dose (MTD),patients; bolus injection every 3 weeks,1.5 mg m-2
same,Plasma clearance,patients; bolus,650 ml min-1 m-2
same,t1/2 after a rapid distribution phase,patients; bolus,40 h
same,Tumour responses,"patients; head and neck (one out of three), cervical cancer (one out of five), colorectal cancer (two out of 20)",four responses
same,Lipophilicity,[1],high lipophilicity
same,Tumour responses,[2],No tumour response
same,"% Dose in urine, median (range)",[3]; 1.0 mg m-2 (n = 3),1.6 (0.53-1.74) %
same,"% Dose in urine, median (range)",[3]; 1.25 mg m-2 (n = 6),2.1 (0.35-2.6) %
same,"Cl (plasma clearance), median (range)","[3]; 1.25 mg m-2, n = 4",649.0 (506.3-812.3) ml min-1 m-2
same,"Vss, median (range)","[3]; 1.25 mg m-2, n = 4",2891.5 (1742-3371) l m-2
same,"Vz, median (range)","[3]; 1.25 mg m-2, n = 4",3942.5 (1997-4540) l m-2
same,"t1/2 z (printed 'tA z'), median (range)","[3]; 1.25 mg m-2, n = 4",60.9 (45.6-88.8) h
same,"% Dose in urine, median (range)",[3]; 1.5 mg m-2 (n = 3),2.47 (1.71-2.49) %
same,"Cl (plasma clearance), median (range)","[3]; 1.5 mg m-2, n = 2",741.2 (659-823.2) ml min-1 m-2
same,"Vss, median (range)","[3]; 1.5 mg m-2, n = 2",2693.0 (2585-2801) l m-2
same,"Vz, median (range)","[3]; 1.5 mg m-2, n = 2",2908.5 (2574-3243) l m-2
same,"t1/2 z (printed 'tA z'), median (range)","[3]; 1.5 mg m-2, n = 2",46.5 (36.1-56.9) h
same,Renal excretion,[3]; 3 h i.v. infusion,negligible
same,"Correlation between AUC0-tz or Cmax and nadirs of haemoglobin, platelets, leucocytes and neutrophils","[3]; pharmacodynamic analysis, linear regression, first cycle",no correlation
same,"AUC 0-tz, median (range)","[3]; plasma, 1.0 mg m-2 (n = 3)",9.4 (8.3-18.3) ng h ml-1
same,"Cmax, median (range)","[3]; plasma, 1.0 mg m-2 (n = 3)",2.8 (1.8-6.2) ng ml-1
same,"Cmax, one patient with high value","[3]; plasma, 1 mg m-2, one patient",6.17 ng/mL
same,"AUC 0-tz, median (range)","[3]; plasma, 1.25 mg m-2 (n = 6)",15.1 (10.1-30.4) ng h ml-1
same,"Cmax, median (range)","[3]; plasma, 1.25 mg m-2 (n = 6)",2.3 (1.1-2.7) ng ml-1
same,"AUC 0-tz, median (range)","[3]; plasma, 1.5 mg m-2 (n = 3)",21.4 (5.7-26.9) ng h ml-1
same,"Cmax, median (range)","[3]; plasma, 1.5 mg m-2 (n = 3)",1.4 (1.2-2.1) ng ml-1
same,"Cmax, all other patients","[3]; plasma, all dose levels",around 2.0 ng ml-1
same,AUC0-infinity from non-compartmental analysis,"[3]; similar for all dose levels, seven patients",around 30 ng h ml-1
same,Cytotoxic activity in vitro,[4],potent cytotoxic activity
same,Activity against MDR xenografts,MDR xenografts,showed activity
same,Non-haematological toxicity,[5]; 1 mg m-2,did not exceed CTC grade II
same,Median (range) nadir of leucocytes over all evaluable cycles,[5]; 1.0 mg m-2,6.0 (3.9-15.1) x 109 l-1
same,Median (range) nadir of neutrophils over all evaluable cycles,[5]; 1.0 mg m-2,3.3 (2.4-12.7) x 109 l-1
same,Median (range) nadir of platelets over all evaluable cycles,[5]; 1.0 mg m-2,197 (130-356) x 109 1-1
same,"Neutrophils, CTC grade III toxicity","[5]; 1.0 mg m-2, 7 cycles",0 % of total number of cycles
same,"Neutrophils, CTC grade IV toxicity","[5]; 1.0 mg m-2, 7 cycles",0 % of total number of cycles
same,"Leucocytes, CTC grade III toxicity","[5]; 1.0 mg m-2, 8 cycles",0 % of total number of cycles
same,"Leucocytes, CTC grade IV toxicity","[5]; 1.0 mg m-2, 8 cycles",0 % of total number of cycles
same,"Platelets, CTC grade III toxicity","[5]; 1.0 mg m-2, 8 cycles",0 % of total number of cycles
same,"Platelets, CTC grade IV toxicity","[5]; 1.0 mg m-2, 8 cycles",0 % of total number of cycles
same,Median (range) nadir of leucocytes over all evaluable cycles,[5]; 1.25 mg m-2,2.7 (1.0-10.4) x 109 l-1
same,Median (range) nadir of neutrophils over all evaluable cycles,[5]; 1.25 mg m-2,1.9 (0.5-8.3) x 109 l-1
same,Median (range) nadir of platelets over all evaluable cycles,[5]; 1.25 mg m-2,190 (60-328) x 109 1-1
same,"Nausea, vomiting and diarrhoea exceeding grade II",[5]; 1.25 mg m-2,one cycle
same,Transient elevations in total bilirubin reaching CTC grade II,[5]; 1.25 mg m-2,2/15
